Experiments:
[1] = test system: Jurkat cells; assay: Uptake in competition with galectin-1, flow cytometry; type: cell-based, human; details: only at concentrations orders of magnitude higher than serum galectin-1 level (6.7 nM)
[2] = cited from earlier work
From the text: Helenius and Pelkmans pointed out that multivalent binding/clustering of ganglioside GM1 is necessary to trigger lipid raft‐mediated/caveolar endocytosis,9 and the tetravalent nature of our model carrier–cargo complex is consistent with this observation. On the other hand, the number of copies of the carrier sequence required for endocytosis can be crucial, especially if the carrier–cargo complex is produced by recombinant synthesis. […] CFU‐Penetratin, which has ...

[3] = target: ganglioside GM1; assay: ITC titration with GM1:DPC 1:5 bicelles; details: two-independent-binding-site model, pH 7.2 phosphate, 35 °C, read-out: K D toward GM1 (tagged NeutrAvidin)
[4] = test system: HeLa cells; assay: Flow cytometry (FACS) uptake of NA constructs and fluorescently labeled sequences, HeLa; details: 1 µM cargo, 1 h, 37 °C, MEM+1% FBS, trypan blue quencher, triplicate

Kd [3] [nM]	Substance	inhibition of GM1–WYKYW interaction by galectin-1 [1]	affinity for terminal digalactosides [2]	level of uptake by FACS [4]
–	galectin‐1: protein binding terminal digalactosides, used as inhibitor	competitive inhibitor of the GM1–WYKYW interaction	micromolar affinity	–
14.5 ± 1.7	NA(biotinyl‐PEG‐WYKYW)4	–	–	similar
